According to patent US11964980B2, “Crystalline forms of (S)-1-(4-fluorophenyl)-1-(2-(4-(6-(1-methyl-1H-pyrazol-4-yl)pyrrolo[2,1- f][1,2,4]triazin-4-yl)piperazinyl)-pyrimidin-5-yl)ethan-1-amine and methods of making” (Blueprint Medicines Corporation, priority 2019, dated 2024):
In brackets after ≈: the same amount, converted by molar mass.

Experiments:
[1] = Dynamic vapor sorption (DVS); type: physicochemical
Description: DVS: Dynamic Vapor Sorption (DVS) was performed using a DVS Intrinsic 1. The sample was loaded into a sample pan and suspended from a microbalance. A typical sample mass for DVS measurement was 25 mg. Nitrogen gas bubbled through distilled water provided the desired relative humidity. A typical measurement comprised the following steps: • 1. Equilibrate at 50% RH • 2. 50% to 2%. (50%, 40%, 30%, 20%, 10%, and 2%) • a. Hold minimum of 5 minutes and maximum of 60 minutes at each humidity. The pass criteria was less than 0.002% change; • 3. 2% to 95% (2%, 10%, 20%, 30%, 40%, 50%, 60%, 70%, 80%, 90%, 95%) • a. Hold minimum of 5 minutes and maximum of 60 minutes at each humidity. The pass criteria was less than 0.002% change; • 4. 95% to 2% (95%, 80%, 70%, 60%, 50%, 40%, 30%, 20%, 10%, 2%) • a. Hold minimum of 5 minutes and maximum of 60 minutes at each humidity. The pass criteria was less than 0.002% change; • 5. 2% to 50% (2%, 10%, 20%, 30%, 40%, 50%) • a. Hold minimum of 5 minutes and maximum of 60 minutes at each humidity. The pass criteria was less than 0.002% change.

[2] = Stability comparison of the crystalline forms; type: physicochemical; settings: ambient temperature
[3] = test system: patients; assay: Clinical trials employing crystalline Form A: adverse effects; type: in vivo, human
Excerpt: In clinical trials employing crystalline Form A of Compound (I), adverse effects were categorized by severity into Grades 1-5. Most adverse events reported were Grade 1 or 2, indicating crystalline Form A of Compound (I) is well-tolerated. […] Severe dose limiting toxicities for other TKIs may be a result of inhibiting a broad range of kinases.

[4] = for Solubility, FaSSGF: pH 1.67; for Solubility, FaSSIF: pH 6.57
Description: Fasted simulated intestinal fluid (FaSSIF) (pH=6.57) was prepared by dissolving NaOH pellets (0.105 g), NaH2PO4·H2O (0.9875 g), and NaCl (1.5475 g) in distilled water (225 mL) and adjusting the pH to 6.57 by adding 1 N NaOH solution and 1 N HCl. Water was then added to a volume of 250 mL to produce phosphate buffer. Biorelevant powder (0.56 g) was dissolved in the phosphate buffer (125 mL), then made up to 250 mL using phosphate buffer. The prepared solution was left standing for 2 hours and then used for solubility measurements.
Fasted simulated gastric fluid (FaSSGF) (pH=1.67) was prepared by dissolving NaCl (0.5 g) in distilled water (225 mL). The pH was adjusted to 1.67 using 1 N HCl, then the solution was made up to 250 mL using distilled water to produce NaCl/HCl solution. Biorelevant powder (0.015 g) was dissolved in NaCl/HCl solution (125 mL), then made up to 250 mL using NaCl/HCl solution. The prepared solution was ready for use.
Solubility of crystalline Form A and a mixture of crystalline Form A and crystalline Form C was measured in fasted simulated intestinal fluid (FaSSIF), fasted simulated gastric fluid (FaSSGF), and water at 37° C. Thin slurries were stirred overnight and then supernatant was collected for HPLC analysis.
Solubility of crystalline Form H of a hydrochloride salt of Compound (I), crystalline Form Tr of a tartrate salt of Compound (I), and crystalline Form T of a tosylate salt of Compound (I) was measured in fasted state simulated intestinal fluid (FaSSIF), fasted state simulated gastric fluid (FaSSGF), and water at 37° C. About 1.5 mL solution was stirred at 37° C. The salt was then added incrementally until a thin slurry was formed, followed by stirring overnight. The solids were allowed to settle, and the pH of the supernatant was taken. Supernatant was recovered for injection to HPLC and solids were recovered for XRPD.
Solubility was determined based on interpolation from a calibration curve prepared using freebase.

[5] = XRPD of solids recovered from the solubility slurries; type: physicochemical; settings: 37° C.; for Stability of crystalline form upon slurrying (XRPD): overnight
Description: XRPD: X-ray powder diffraction was done using a Rigaku MiniFlex 600. Samples were prepared on Si zero-return wafers. Typical scans were obtained from 20 of 4 to 30 degrees, with step size 0.05 degrees over five minutes with 40 kV and 15 mA. High resolution scans were obtained from 20 of 4 to 40 degrees, with step size 0.05 degrees over thirty minutes with 40 kV and 15 mA. Typical parameters for XRPD are listed below.
Solids were recovered from the slurries for analysis by XRPD. Crystalline Form H was stable upon slurrying in all solutions. Crystalline Form Tr was stable upon slurrying in water.

Compound: Cn1cc(-c2cc3c(N4CCN(c5ncc([C@@](C)(N)c6ccc(F)cc6)cn5)CC4)ncnn3c2)cn1 [crystalline Form A, (S)-1-(4-fluorophenyl)-1-(2-(4-(6-(1-methyl-1H-pyrazol-4-yl)pyrrolo[2,1-f][1,2,4]triazin-4-yl)piperazin-1-yl)pyrimidin-5-yl)ethan-1-amine]
- Hygroscopicity by DVS analysis [1]: non-hygroscopic
- Weight change in DVS experiment ([1]; 2-95% RH at 25° C.): 0.42%
- Weight change in DVS experiment ([1]; 2-95% RH at 40° C.): 0.29%
- Weight change in DVS experiment ([1]; 70-95% RH at 40° C.): 0.20%
- Moisture uptake by weight ([1]; exposed to 40° C. and up to 95% relative humidity): up to 0.44%
- Stability relative to the other crystalline forms [2]: more stable
- Severe dose limiting toxicities observed for other TKIs (dermatologic, hepatic, cardiovascular) [3]: did not exhibit
- Severity grade of most adverse events reported ([3]; Grades 1-5): Grade 1 or 2
- Solubility, FaSSGF [4]: 2.11 mg/mL (≈ 4.23 mM)

Compound: Cn1cc(-c2cc3c(N4CCN(c5ncc([C@@](C)(N)c6ccc(F)cc6)cn5)CC4)ncnn3c2)cn1 [crystalline Form C, (S)-1-(4-fluorophenyl)-1-(2-(4-(6-(1-methyl-1H-pyrazol-4-yl)pyrrolo[2,1-f][1,2,4]triazin-4-yl)piperazin-1-yl)pyrimidin-5-yl)ethan-1-amine]
- Weight change in DVS experiment ([1]; 2-10% RH at 25° C.): 1.76%
- Weight change in DVS experiment ([1]; 2-10% RH at 40° C.): 1.93%
- Weight change in DVS experiment ([1]; 2-95% RH at 25° C.): 2.90%
- Weight change in DVS experiment ([1]; 2-95% RH at 40° C.): 2.99%
- Solubility, FaSSGF [4]: 2.72 mg/mL (≈ 5.46 mM)
- Solubility, FaSSIF [4]: 0.03 mg/mL (≈ 0.0602 mM)

Compound: Cn1cc(-c2cc3c(N4CCN(c5ncc([C@@](C)(N)c6ccc(F)cc6)cn5)CC4)ncnn3c2)cn1 [crystalline Form H]
- Stability of crystalline form upon slurrying (XRPD) ([5]; all solutions (FaSSIF, FaSSGF, water)): stable
- Weight change in DVS experiment ([1]; 2-95% RH at room temperature): 15%
- Weight change in DVS experiment ([1]; 80-95% RH at room temperature): 10.8%
- Solubility, FaSSGF [4]: 4.18 mg/mL (≈ 8.38 mM)
- Solubility, FaSSIF [4]: 0.10 mg/mL (≈ 0.201 mM)

Compound: Cn1cc(-c2cc3c(N4CCN(c5ncc([C@@](C)(N)c6ccc(F)cc6)cn5)CC4)ncnn3c2)cn1 [crystalline Form T]
- Solubility, FaSSGF [4]: 1.88 mg/mL (≈ 3.77 mM)
- Solubility, FaSSIF [4]: 0.08 mg/mL (≈ 0.16 mM)

Compound: Cn1cc(-c2cc3c(N4CCN(c5ncc([C@@](C)(N)c6ccc(F)cc6)cn5)CC4)ncnn3c2)cn1 [crystalline Form Tr]
- Stability of crystalline form upon slurrying (XRPD) ([5]; FaSSGF): converted into crystalline Form H
- Behaviour of solid in slurry ([5]; FaSSIF): gummed
- Stability of crystalline form upon slurrying (XRPD) ([5]; water): stable
- Weight change in DVS experiment ([1]; 2-95% RH at room temperature): 4.4%
- Solubility, FaSSGF [4]: 4.79 mg/mL (≈ 9.61 mM)
- Solubility, FaSSIF [4]: 0.27 mg/mL (≈ 0.542 mM)
